The source of these data is patent publication US9642874B2, “Compositions of selenoorganic compounds and methods of use thereof” (Alltech, Inc., priority 2014, dated 2017).

The subject of data set [1] is Insr. As to the kind of experiment: Insr mRNA expression (QRT-PCR) in AML-12 cells. In kind it is cell-based, mouse. To be noted: insulin alone, 6 hours, without 8-CPT/Dex. The procedure: For RNA analysis of insulin receptor (Insr), insulin like growth factor receptor (Igf1r), and Glucose-6-Phosphatase (G6pc), AML-12 cells were amplified in ITS, Dex and FBS-containing DMEM/F12 media, and cultured on 24-well (6.7×10^4 cells/well) plates in 10% FBS ITS-free DMEM/F12 media with or without Dex overnight. These cells were treated with control (water) or various compounds (diluted in 10% FBS ITS-free DMEM/F12 media with or without Dex) for 6 hours, 24 hours, or 48 hours.
In some experiments, the AML-12 cells were washed twice with PBS after the compound treatments for 24 hours, and then incubated with selenium compounds (150 or 300 ppb of each compound) in the presence or absence of insulin (10 or 100 nM), 0.1 mM 8-CPT (Sigma), or 0.5 μM Dex in serum-free, glucose/phenol red-free DMEM media supplemented with 20 mM lactose and 2 mM pyruvate, and 15 mM HEPES (glucose-production media) for another 6 hours. After treatments, cell media were collected and subjected to glucose assays using Abcam glucose assay kit according to the manufacturer's protocol. […]
Total RNA from these cells was isolated using Trizol (Invitrogen) according to the manufacturer's protocol, and then incubated with DNase I to remove any potential contaminated genomic DNA. […] Three to six samples were analyzed in each treatment group. […]

The subject of data set [2] is primary mouse hepatocytes. As to the kind of experiment: Toxicological study: LDH level in culture media of primary mouse hepatocytes. It is filed as cell-based. To be noted: Compounds CDE (150, 300 ppb), insulin (10, 100 nM) or both; 24 hours serum-containing + 6 hours. The procedure: The overnight-acclimated hepatocytes were washed twice with PBS (to remove any residual FBS and other additives in the TRL hepatocyte maintenance medium, pretreated with control (water) or selenium Compounds CDE (150 or 300 ppb of each selenium compound) in DMEM/F12 media supplemented with 10% fetal bovine serum (FBS) for 24 hr. These cells were then washed twice with PBS and incubated with the same dose of selenium Compounds CDE (150 or 300 ppb) in the presence or absence of insulin (10 or 100 nM, Sigma), 0.1 mM 8-CPT (Sigma) or 0.5 μM Dex (Sigma) in serum-free and glucose-free DMEM media (Invitrogen) supplemented with 20 mM lactose (Sigma) and 2 mM pyruvate (Sigma) and 15 mM HEPES (Sigma) for another 6 hours. […]
Similar to the above glucose assay, cell culture media from the above described treatments were collected and centrifuged at 300×g for 5 minutes to remove any potential dislodged hepatocytes and subjected to LDH analysis using a […] (Abcam) according to the manufacturer protocol. In brief, the absorbance at OD450 nm in LDH standards and the culture medium samples after incubation with LDH substrates for every two minutes up to 40 minutes were determined by the Bio-Tek microplate reader. […]

For the substance “insulin: insulin (10 or 100 nM, Sigma) used as comparator and cotreatment”, the Insr expression result in data set [1] was “did not increase”. The “LDH levels in the media” value in data set [2] is reported as “did not cause a significant increase of LDH levels”.
